Results taken from patent US20120128665A1, “PRESELECTION OF SUBJECTS FOR THERAPEUTIC TREATMENT BASED ON HYPOXIC STATUS” (SYNTA PHARMACEUTICALS CORP., priority 2010, published 2012).
Where two headings read alike, the source gives them in different places.

Tests used:
glioblastoma [1] = conditions: 56 patients treated with bevacizumab alone; cited from earlier work
[2] = system: metastatic colorectal cancer; conditions: cited from earlier work
[3] = system: HCT116 human colon carcinoma xenograft; assay: HCT116 xenograft model (hypoxic tumor); type: in vivo, nude mice
Experimental: (§1) Human tumor cell lines HCT116 (ATCC #CRL-247; Schroy PC, et al. Cancer 76:201-209, 1995) and 786-O (ATCC #CRL-1932; Williams RD, et al. In Vitro 12:623-627, 1976), were obtained from the American Type Culture Collection (Manassus, Va., USA) were cultured using routine methods until a sufficient number of cells were obtained for implantation. Studies were conducted on animals between 7 and 12 weeks of age at implantation. To implant HCT116 tumor cells into nude mice, the cells were trypsinized, washed in PBS and resuspended at a concentration of 75×10^6 cells/ml in McCoy's modified medium with 50% of BD Matrigel® Basement Membrane Matrix (BD Biosciences®, Bedford, Mass., USA). To implant 786-O tumor cells into nude mice, the cells were trypsinized as above, washed in PBS and resuspended at a concentration of 75×10^6 cells/ml in RPMI 1640 medium with 50% of BD Matrigel® Basement Membrane Matrix. Using a 27 gauge needle and 1 cc syringe, 0.1 ml of the cell suspension was injected into the corpus adiposum of nude mice. The corpus adiposum is a fat body located in the ventral abdominal vicera in the right quadrant of the abdomen at the juncture of the os coxae (pelvic bone) and the os femoris (femur). The location permits palpation and measurement of the tumors using external calipers. Tumor volumes (V) were calculated by caliper measurement of the width (W), length (L) and thickness (T) of tumors using the following formula: V=0.5236×(L×W×T). Animals were randomized into treatment groups so that the average tumor volumes of each group were similar at the start of dosing.
(§2) A tumor model in which the tumors have relatively high and low levels of LDH5, indicating high and low levels of hypoxia, using human tumor cell lines HCT116 and 786-O was established as set forth in the previous example.
(§3) As above, HCT116 and 786-O cells were cultured and implanted into nude mice using the methods in the previous example. Tumor growth was measured using calipers. Prior to treatment with the various agents, tumors were permitted to develop in vivo until they reached approximately 150 mm^3 in volume, which typically required 2-3 weeks following implantation. Animals were randomized into treatment groups so that the average tumor volumes of each group were similar at the start of dosing.
(§4) Tumor volume was monitored throughout the course of the study, until up to about 40 days from the date of tumor implantation. The exact number of days of the study depended on a number of factors including, for example, the number of days from implantation for the tumors to reach the desired volume.

[4] = system: advanced non-squamous, non-small cell lung cancer (NSCLC); conditions: bevacizumab arm = with paclitaxel and carboplatin; comparator chemotherapy alone; statistically significant; cited from earlier work
renal cancer = conditions: cited from earlier work
[5] = system: HCT116 tumors vs 786O tumors; assay: response of hypoxic vs non-hypoxic tumors; type: in vivo, nude mice; conditions: doses as in the 3rd table
glioblastoma [6] = conditions: 85 patients treated with bevacizumab alone; cited from earlier work
[7] = system: metastatic colorectal cancer; conditions: cited from earlier work; remark: listed apart in the source
[8] = system: 786-O human renal carcinoma xenograft; assay: 786-O xenograft model (non-hypoxic tumor); type: in vivo, nude mice
Experimental: as §1, §2, §3, §4

[9] = system: HER2-negative, metastatic breast cancer; conditions: added to standard chemotherapy; cited from earlier work
[10] = system: metastatic pancreatic cancer; conditions: cited from earlier work
solid tumors = conditions: once-weekly dosing; cited from earlier work
[11] = system: advanced relapsed/refractory NSCLC; conditions: cited from earlier work
[12] = system: cancer of the parotid gland; conditions: one patient; ganetespib 150 mg/m^2 with docetaxel 75 mg/m^2; cited from earlier work
[13] = system: wide range of cancer types; conditions: cited from earlier work

bevacizumab: recombinant humanized monoclonal IgG1 antibody that binds to and inhibits human vascular endothelial growth factor (VEGF)
patients who responded (glioblastoma [1]): 20% | median survival ([2]; bevacizumab and 5-FU/Leucovorin (n=249) vs IFL regimen alone): 17.9 months | progression-free survival ([2]; bevacizumab plus 5-FU/Leucovorin vs IFL regimen alone): 8.7 months | tumor growth as compared to control ([3]; bevacizumab higher dose (4 mg/kg) i.p., p=0.0424): reduced the growth of the tumor | tumor growth as compared to control ([3]; bevacizumab lower concentration (1 mg/kg) i.p., p=0.1274): small trend to decreased tumor growth | median overall survival [4]: 12.5 months | patients with decreased tumor size (renal cancer; bevacizumab arm = with interferon-alpha, comparator interferon-alpha alone): 30% | increase in progression-free survival time compared to interferon-alpha alone (renal cancer; bevacizumab with interferon-alpha): about 5 months | effectiveness at slowing tumor growth in tumors with high levels of hypoxia (HCT116) compared with low levels (786O) [5]: more effective | patients whose tumors shrank (glioblastoma [6]): 26% | median survival ([7]; bevacizumab arm = bevacizumab plus 5-FU/Leucovorin, comparator 5-FU/Leucovorin alone, not statistically significant): 16.6 months | improvement in median survival ([7]; bevacizumab plus 5-FU/Leucovorin vs 5-FU/Leucovorin alone): 29% | tumor burden as compared to control ([8]; bevacizumab higher dose (4 mg/kg) i.p., p=0.011): greatest tumor burden | tumor burden as compared to control ([8]; low dose bevacizumab (1 mg/kg) i.p., p=0.437): no significant difference in tumor burden | keeping cancer from worsening [9]: does not keep cancer from worsening for a long enough time to be clinically meaningful | progression free survival HR ([10]; bevacizumab vs placebo arm, both with gemcitabine and erlotinib, 95% CI 0.61 to 0.96, P=0.0002): 0.73 | median overall survival ([10]; bevacizumab, gemcitabine and erlotinib, 306 patients): 7.1 months

CC(C)c1cc(-c2nnc(O)n2-c2ccc3c(ccn3C)c2)c(O)cc1O [ganetespib]
evaluable patients with disease control (solid tumors): more than half | outcome in several patients who had progressed or failed multiple prior therapies (solid tumors): substantial tumor shrinkage and prolonged disease control | effectiveness at slowing tumor growth in tumors with high levels of hypoxia (HCT116) compared with low levels (786O) [5]: not found to work better | patients with durable, objective responses ([11]; ALK rearrangement, four patients): 50% | patients who received ganetespib for 16 weeks or more ([11]; ALK rearrangement, seven of eight): 88% | patients with tumor shrinkage ([11]; ALK rearrangement, six of eight patients): 75% | disease control rate ([11]; broad population): 54% | hepatic and ocular toxicities ([11]; compared with other Hsp90 inhibitors): did not have the serious hepatic or common ocular toxicities | tolerability ([11]; in vivo): well tolerated | patients with tumor shrinkage ([11]; tumors with a KRAS mutation): 62% | shrinkage of target tumor lesions, confirmed partial response [12]: over 50% | activity against cancers resistant to imatinib, sunitinib, erlotinib and dasatinib [13]: potent activity | activity against a wide range of cancer types ([13]; lung, prostate, colon, breast, gastric, pancreatic, GIST, melanoma, AML, CML, lymphomas, multiple myeloma, in vitro and in vivo models): potent activity
